Source: patent US20070117864A1, “Composition for preventing and treating hepatoma” (Tokyo University of Agr. & Tech. TLO Co., Ltd., priority 2003, published 2007)
Marks after values point to notes of the source that are not given here.

Legend:
[1] = fecal steroid excretion in hepatoma-bearing rats; assay type: in vivo, rat; details: for Steroid excretion Bile acids / Steroid excretion Neutral sterols: feces, final two days, mean ± SEM of 11 rats
Protocol: Male Donryu rats of four weeks old were purchased from NRC Haruna, Gumma, Japan, and were preliminarily fed for 6 days in quintuple cages in a room with a controlled environment with light period of 8:00 to 20:00, room temperature of 22±1° C., and relative humidity of 60±5%. For the first 3 days, the animals were fed ad libitum with a stock pellet diet (CE-2; CLEA Japan, Tokyo), and for the next 3 days, they were fed a basal diet containing 20% milk casein (20C) (Table 1) ad libitum together with tap water in a glass container. Following the completion of this preparatory raising, the rats were divided into three groups (11 animals per group) with equal average body weights of the respective groups were equal, and 1.0×10^7 of AH109A cells suspended in PBS (−) were transplanted in the back of all the rats. From the time immediately after transplantation, in the respective experimental groups, the animals were fed the experimental diets shown in Table 2.
During the experimental period, the body weight, food intake and solid tumor size (sum of length, width and height) were measured everyday. On the day that the animals were killed, animals were deprived of experimental diets at 9:00, but freely given water until they were killed 4 hours later. Blood was collected from carotid, and the liver and solid tumors were excised. The collected blood was allowed to stand for approximately 2 hours at room temperature, and then centrifuged for 10 minutes at 3000 rpm (1750×g), 4° C., to obtain serum. This blood serum was frozen and stored at −20° C. The livers and solid tumors were washed with physiological saline, blotted on filter paper, and weighed. Furthermore, feces from the 19th to 21st days after transplantation were collected, and these feces were frozen and stored at −20° C. for the measurement of the amounts of steroids excreted from the body.
The amounts of fecal steroids, neutral sterol (NS) and bile acid (BA), excreted into feces were measured. The feces were dried at 60° C., and the dry weight was measured; then, the feces were pulverized using a mixer and a mortar and pestle. Approximately 100 mg of feces was precisely weighed and placed in a screw-capped test tube, and then was saponified for 1 hour at 70° C. by adding 1.5 ml of 4 N potassium hydroxide solution and 1 ml of ethanol. The NS was extracted by transferring the n-hexane layer to a test tube by adding 3 ml of n-hexane to a test tube, shaking this mixture and then subjecting to centrifugal separation at 3000 rpm (1750×g) for 10 minutes. The same operation was performed three times. Subsequently, with […] of distilled water to dilute potassium hydroxide concentration thereof to 1.2 N, and the mixture was subjected to a high-pressure treatment (autoclaved) for 3 hours at 121° C., to deconjugate the conjugated BA. After the preparation was allowed to stand until cool, BA was extracted by adding 3 ml of diethyl ether after adjusting the pH of the solution to 1 with 0.8 ml of hydrochloric acid, and the resulting mixture was shaked; then, subjecting this preparation to centrifugal separation for 10 minutes at 3000 rpm (1750×g), to transfer the diethyl ether layer to a test tube. This operation was performed three times.
The n-hexane extract was dried; then, was added with 0.4 ml of isopropanol and 1.6 ml of 10% Triton X-100. to dissolve the NS. An aliquot (0.24 ml) of this solution was sampled, and was subjected to measurement of NS using a cholesterol C test Wako. […]

[2] = food intake, body weight gain and liver weight in hepatoma-bearing rats; assay type: in vivo, rat; details: for Body weight gain: mean ± SEM of 11 rats
Protocol: Male Donryu rats of four weeks old were purchased from NRC Haruna, Gumma, Japan, and were preliminarily fed for 6 days in quintuple cages in a room with a controlled environment with light period of 8:00 to 20:00, room temperature of 22±1° C., and relative humidity of 60±5%. For the first 3 days, the animals were fed ad libitum with a stock pellet diet (CE-2; CLEA Japan, Tokyo), and for the next 3 days, they were fed a basal diet containing 20% milk casein (20C) (Table 1) ad libitum together with tap water in a glass container. Following the completion of this preparatory raising, the rats were divided into three groups (11 animals per group) with equal average body weights of the respective groups were equal, and 1.0×10^7 of AH109A cells suspended in PBS (−) were transplanted in the back of all the rats. From the time immediately after transplantation, in the respective experimental groups, the animals were fed the experimental diets shown in Table 2. During the experimental period, the body weight, food intake and solid tumor size (sum of length, width and height) were measured everyday. On the day that the animals were killed, animals were deprived of experimental diets at 9:00, but freely given water until they were killed 4 hours later. Blood was collected from carotid, and the liver and solid tumors were excised. The collected blood was allowed to stand for approximately 2 hours at room temperature, and then centrifuged for 10 minutes at 3000 rpm (1750×g), 4° C., to obtain serum. This blood serum was frozen and stored at −20° C. The livers and solid tumors were washed with physiological saline, blotted on filter paper, and weighed. Furthermore, feces from the 19th to 21st days after transplantation were collected, and these feces were frozen and stored at −20° C. for the measurement of the amounts of steroids excreted from the body.

O=C1OCC(Cc2cccc(O)c2)C1Cc1cccc(O)c1 (centres unmarked) [Enterolactone, enterolactone]
amounts of neutral sterol and bile acid excreted into the feces ([1]; ENL diet groups versus control diet group): significant and dose-dependent increase
Steroid excretion Bile acids ([1]; diet 10 ppm): 18.7 ± 1.49^ab μmol/2 days
Steroid excretion Neutral sterols ([1]; diet 10 ppm): 29.5 ± 2.7^b μmol/2 days
Steroid excretion Bile acids ([1]; diet 100 ppm): 20.8 ± 1.89^b μmol/2 days
Steroid excretion Neutral sterols ([1]; diet 100 ppm): 30.9 ± 2.18^b μmol/2 days
body weight ([2]; 100 ppm ENL ingestion group versus control): significant increase
Body weight gain ([2]; diet 10 ppm): 158 ± 8^a g/21 days
Body weight gain ([2]; diet 100 ppm): 171 ± 4^b g/21 days
